Experiments:
Format in all cases: in vivo, Arabidopsis thaliana
[1] = test system: SEN::AtGA2ox4-9 and SEN::AtGA2ox4-10 dwarfism lines; assay: Phenotype recovery of SEN::AtGA2ox4 mutant by treatment with GA3
Procedure: In order to examine whether the AtGA2ox4 gene is actually involved in gibberellin catabolism, the SEN::AtGA2ox4-9 and the SEN::AtGA2ox4-10 line, both showing dwarfism phenotypes, were grown for 30 days while 10^−4 M GA3 (Sigma, USA) was applied twice at intervals of one week starting from 12 days after germination. Treatment with the active gibberellin GA3 may recover the phenotype of the dwarfism-induced mutant in which gibberellin insufficiency was caused by the overexpression of the AtGA2ox4 gene, to that of the wild-type. Comparisons were made between the mutants treated with or without GA3 (FIGS. 10, 11 and 12). […] This was true of GA3-treated mutants. These facts allow an inference that the gene of the present invention plays an important role in dwarfism induction in plants, but is not involved in the control of flowering time.

[2] = test system: AtGA20ox1, AtGA20ox2 and AtGA3ox1 expression; assay: RT-PCR expression of gibberellin biosynthesis-related genes in SEN::AtGA2ox4 mutant; conditions: FIG. 9
Procedure: Genes associated with GA 2-oxidase activity, flowering and a feedback mechanism of the gibberellin metabolism in the SEN::AtGA2ox4 mutant with a dwarfism phenotype were analyzed for expression patterns. In this regard, total RNA was isolated from flowers, roots, stems, leaves and siliques of the wild-type Arabidopsis thaliana and the SEN::AtGA2ox4 mutant, both grown for 30 days after germination, with the aid of RNasey Plant Mini Kit (QIAGEN, Germany). cDNA was synthesized from 1 μg of each RNA using Superscript III Reverse Transcriptase (INVITROGEN, USA) under the conditions of 65° C., 5 min; 50° C., 60 min; and 70° C., 15 min. Then, PCR was performed using the synthesized cDNAs as templates in the presence of the primers, specific for GA 2-oxidase and flowering genes, listed in Table 1, below. The PCR was initiated by denaturing the template DNA at 94° C. for 2 min and performed with 30 cycles of 94° C., 1 min; 55° C., 1.5 min; and 72° C., 1 min, followed by extension at 72° C. for 15 min. […]
An examination was made about whether the gene of the present invention is involved in the feedback mechanism of the gibberellin metabolism and thus in gibberellin catabolism. For this, AtGA20ox1 and AtGA20ox2, both coding for GA20-oxidase, and AtGA3ox1 coding for GA3-oxidase were analyzed for expression levels in the SEN::AtGA2ox4 mutant. […]

[3] = test system: proteins up-regulated by AtGA2ox4 overexpression; assay: Two-dimensional electrophoresis of proteins of SEN::AtGA2ox4 mutant; conditions: SEN::AtGA2ox4 mutant grown 30 days, 2-D electrophoresis, Table 2
Procedure: Proteins were isolated from the wild-type Arabidopsis thaliana (FIG. 13), the SEN::AtGA2ox4 mutant (FIG. 14), and the GA3-treated SEN::AtGA2ox4 mutant (FIG. 15), all grown for 30 days after germination, and analyzed for expression pattern by two-dimensional electrophoresis. Protein isolation for each plant was conducted as follows. Each plant was mashed in 10 volumes of a reagent comprising 7M urea, 2M thiourea, 4% (w/v) 3-[(3-cholamidopropy)dimethyammonio]-1-propanesulfonate (CHAPS), 1% (w/v) dithiothreitol (DTT), 2% (v/v) pharmalyte and 1 mM benzamidine, followed by heating at 100° C. for 10 min. After centrifugation at 15,000 rpm for 1 hour, the supernatant was used as a sample for two-dimensional electrophoresis. Protein quantities were determined using the Bradford method (Bradford et al., 1976). For primary isoelectric focusing (IEF), IPG strips were soaked at room temperature for 12-16 hrs in a reswelling solution comprising 7M urea, 2M thiourea, 2% 3-[(3-cholamidopropy)dimethylammonio]-1-propanesulfonate (CHAPS), 1% dithiothreitol (DTT) and 1% pharmalyte. Each protein sample was used in the amount of 200 μg per strip. […] The protein spots were quantified to examine a change in expression level by the analysis of the scanned images using the PDQuest software (version 7.0, BioRad). The quantity of each spot was normalized according to the total intensity of valid spots. […]

In the case of `C=C1C[C@]23C[C@@]1(O)CC[C@H]2[C@@]12C=C[C@H](O)[C@@](C)(C(=O)O1)[C@H]2[C@@H]3C(=O)O` [GA3], the “phenotype of dwarfism-induced mutant lines after GA3 treatment” value ([1]; 10^-4 M GA3 applied twice at intervals of one week starting 12 days after germination, grown 30 days, SEN::AtGA2ox4-9 and -10 lines) is reported as “recovered almost perfectly to the wild-type phenotype”, the “flowering time of GA3-treated mutants versus wild-type” value ([1]; GA3-treated SEN::AtGA2ox4 mutants) is reported as “not different in flowering time from the wild-type” and the “expression levels of AtGA20ox1, AtGA20ox2 and AtGA3ox1 after GA3 treatment” value [2] is reported as “return the expression levels to those of the wild-type”. For the same compound, the “proteins up-regulated by AtGA2ox4 overexpression, after GA3 treatment” value [3] was “recovered to the phenotype of the wild-type”.
